# Legend:
# [1] = test system: Staphylococcus aureus CCM 4516/08; test: Screen against bacteria, MIC/IC80; type: cell-based; settings: SA
# [2] = test system: Staphylococcus aureus H 5996/08 Methiciline-resistant; test: Screen against bacteria, MIC/IC80; type: cell-based; settings: MRSA
# [3] = test system: Staphylococcus epidermidis H 6966/08; test: Screen against bacteria, MIC/IC80; type: cell-based; settings: SE
# [4] = test system: Enterococcus sp. J 14365/08; test: Screen against bacteria, MIC/IC80; type: cell-based; settings: EF
# Escherichia coli CCM4517 = test: Screen against bacteria, MIC/IC80; type: cell-based; settings: EC
# [5] = test system: Klebsiella pneumoniae D 11750/08; test: Screen against bacteria, MIC/IC80; type: cell-based; settings: KP
# [6] = test system: Klebsiella pneumoniae J 14368/08 ESBL-positive; test: Screen against bacteria, MIC/IC80; type: cell-based; settings: KP-E
# [7] = test system: Pseudomonas aeruginosa CCM 1961; test: Screen against bacteria, MIC/IC80; type: cell-based; settings: PA
# fungi and bacteria = type: cell-based
# Method: All the 12 bromide salts and 12 octylsulfate CILs in the table below were screened against fungi and bacteria.
# CILs with bromide as anion have been screened against the following Fungi and bacteria:
# . […] MICs were determined twice and in duplicate.
# [8] = test system: Candida albicans ATCC 44859; test: In vitro antifungal activity, MIC by microdilution (NCCLS M27-A)
# Method: (§1) In vitro antifungal activities of the compounds were evaluated on the collection of fungal strains deposited at the Department of Biological and Medical Sciences, Faculty of Pharmacy, Charles University, Czech Republic. All the isolates were maintained on Sabouraud dextrose agar prior to being tested.
# (§2) Minimum inhibitory concentrations (MICs) were determined by the microdilution format of the NCCLS M27-A guidelines. […] RPMI 1640 (Sevapharma, Prague) medium supplemented with L-glutamine and buffered with 0.165 M morpholinepropanesulfonic acid to pH 7.0 was used as the test medium. The wells of the microdilution tray contained 100 μl of the RPMI 1640 medium with 2-fold serial dilutions of the compounds (1000 to 0.24 μmol/l for the new compounds) and 100 μl of inoculum suspension. Fungal inoculum in RPMI 1640 was prepared to give a final concentration of 5×103±0.2 cfu·ml-1. The trays were incubated at 35° C. and MICs were read visually for filamentous fungi and photometrically for yeasts as an optical density (OD) at 540 nm after 24 h and 48 h. The MICs were defined as 80% inhibition of the growth of control. MICs were determined twice and in duplicate. The deviations from the usually obtained were no higher than the nearest concentration value up and down the dilution scale.
# [9] = test system: Candida albicans ATCC 90028; test: as above
# [10] = test system: Candida parapsilosis ATCC 22019; test: as above; settings: CP
# Method: as §1, §2
# Candida krusei ATCC 6258 = test: as above
# Method: as §1, §2
# Candida krusei E28 = test: as above
# Candida tropicalis 156 = test: as above; settings: CT
# Candida glabrata 20/l = test: as above; settings: CG
# [11] = test system: Candida lusitaniae 2446/l; test: as above; settings: CL
# [12] = test system: Aspergillus fumigatus 231; test: as above; settings: AF
# Method: as §1, §2
# Absidia corymbifera 272 = test: as above; settings: AC
# [13] = test system: Trichophyton mentagrophytes 445; test: as above; settings: TM
# Method: as §1, §2
Molecule,MIC/IC80 ([1]; 24 h) [µM],MIC/IC80 ([1]; 48 h) [µM],MIC/IC80 ([2]; 24 h) [µM],MIC/IC80 ([2]; 48 h) [µM],MIC/IC80 ([3]; 24 h) [µM],MIC/IC80 ([3]; 48 h) [µM],MIC/IC80 ([4]; 24 h) [µM],MIC/IC80 ([4]; 48 h) [µM],MIC/IC80 (Escherichia coli CCM4517; 24 h) [µM],MIC/IC80 (Escherichia coli CCM4517; 48 h) [µM],MIC/IC80 ([5]; 24 h) [µM],MIC/IC80 ([5]; 48 h) [µM],MIC/IC80 ([6]; 24 h) [µM],MIC/IC80 ([6]; 48 h) [µM],MIC/IC80 ([7]; 24 h) [µM],MIC/IC80 ([7]; 48 h) [µM],"MIC/IC80 ([8]; CA1, 24 h) [µM]","MIC/IC80 ([8]; CA1, 48 h) [µM]","MIC/IC80 ([9]; CA2, 24 h) [µM]","MIC/IC80 ([9]; CA2, 48 h) [µM]",other results
"CCCCCCCCOS(=O)(=O)[O-].CCCCCOC(=O)[C@@H](OC(=O)Cn1cc[n+](C)c1)c1ccccc1 [KG302, S-3-methyl-1-[1-(pentoxycarbonyl)-1-phenylmethoxycarbonylmethyl]imidazolium octyl sulphate]",>1000,>1000,>1000,>1000,1000,>1000,>1000,>1000,>1000,>1000,>1000,>1000,>1000,>1000,>1000,>1000,1000,1000,>1000,>1000,"toxicity / inhibition of the growth of fungi and bacteria (fungi and bacteria): inhibit the growth of fungi and bacteria; MIC/IC80 ([10]; 24 h): >1000 µM; MIC/IC80 ([10]; 48 h): >1000 µM; MIC/IC80 (Candida krusei ATCC 6258; CK1, 24 h): >1000 µM; MIC/IC80 (Candida krusei ATCC 6258; CK1, 48 h): >1000 µM; MIC/IC80 (Candida krusei E28; CK2, 24 h): >1000 µM; MIC/IC80 (Candida krusei E28; CK2, 48 h): >1000 µM; MIC/IC80 (Candida tropicalis 156; 24 h): >1000 µM; MIC/IC80 (Candida tropicalis 156; 48 h): >1000 µM; MIC/IC80 (Candida glabrata 20/l; 24 h): >1000 µM; MIC/IC80 (Candida glabrata 20/l; 48 h): >1000 µM; MIC/IC80 ([11]; 24 h): >1000 µM; MIC/IC80 ([11]; 48 h): >1000 µM; MIC/IC80 ([12]; 24 h): 1000 µM; MIC/IC80 ([12]; 48 h): >1000 µM; MIC/IC80 (Absidia corymbifera 272; 24 h): 1000 µM; MIC/IC80 (Absidia corymbifera 272; 48 h): >1000 µM; MIC/IC80 ([13]; 72 h): 250 µM; MIC/IC80 ([13]; 120 h): 500 µM"
"CCCCCCCCOS(=O)(=O)[O-].CCCCCOC(=O)C(OC(=O)Cn1cc[n+](C)c1)c1ccccc1 (centres unmarked) [KG304, RS-3-methyl-1-[1-(pentoxycarbonyl)-1-phenylmethoxycarbonylmethyl]imidazolium octyl sulphate]",1000,1000,>1000,>1000,1000,>1000,>1000,>1000,>1000,>1000,>1000,>1000,>1000,>1000,>1000,>1000,1000,1000,>1000,>1000,"toxicity / inhibition of the growth of fungi and bacteria (fungi and bacteria): inhibit the growth of fungi and bacteria; MIC/IC80 ([10]; 24 h): >1000 µM; MIC/IC80 ([10]; 48 h): >1000 µM; MIC/IC80 (Candida krusei ATCC 6258; CK1, 24 h): 1000 µM; MIC/IC80 (Candida krusei ATCC 6258; CK1, 48 h): >1000 µM; MIC/IC80 (Candida krusei E28; CK2, 24 h): >1000 µM; MIC/IC80 (Candida krusei E28; CK2, 48 h): >1000 µM; MIC/IC80 (Candida tropicalis 156; 24 h): >1000 µM; MIC/IC80 (Candida tropicalis 156; 48 h): >1000 µM; MIC/IC80 (Candida glabrata 20/l; 24 h): >1000 µM; MIC/IC80 (Candida glabrata 20/l; 48 h): >1000 µM; MIC/IC80 ([11]; 24 h): >1000 µM; MIC/IC80 ([11]; 48 h): >1000 µM; MIC/IC80 ([12]; 24 h): 500 µM; MIC/IC80 ([12]; 48 h): >1000 µM; MIC/IC80 (Absidia corymbifera 272; 24 h): 1000 µM; MIC/IC80 (Absidia corymbifera 272; 48 h): 1000 µM; MIC/IC80 ([13]; 72 h): 250 µM; MIC/IC80 ([13]; 120 h): 500 µM"
R-3-methyl-1-[1-(pentoxycarbonyl)-1-methylmethoxycarbonylmethyl]imidazolium octyl sulphate [KG171],>1000,>1000,>1000,>1000,>1000,>1000,>1000,>1000,>1000,>1000,>1000,>1000,>1000,>1000,>1000,>1000,>1000,>1000,>1000,>1000,"MIC/IC80 ([10]; 24 h): >1000 µM; MIC/IC80 ([10]; 48 h): >1000 µM; MIC/IC80 (Candida krusei ATCC 6258; CK1, 24 h): >1000 µM; MIC/IC80 (Candida krusei ATCC 6258; CK1, 48 h): >1000 µM; MIC/IC80 (Candida krusei E28; CK2, 24 h): >1000 µM; MIC/IC80 (Candida krusei E28; CK2, 48 h): >1000 µM; MIC/IC80 (Candida tropicalis 156; 24 h): >1000 µM; MIC/IC80 (Candida tropicalis 156; 48 h): >1000 µM; MIC/IC80 (Candida glabrata 20/l; 24 h): >1000 µM; MIC/IC80 (Candida glabrata 20/l; 48 h): >1000 µM; MIC/IC80 ([11]; 24 h): >1000 µM; MIC/IC80 ([11]; 48 h): >1000 µM; MIC/IC80 ([12]; 24 h): >1000 µM; MIC/IC80 ([12]; 48 h): >1000 µM; MIC/IC80 (Absidia corymbifera 272; 24 h): >1000 µM; MIC/IC80 (Absidia corymbifera 272; 48 h): >1000 µM; MIC/IC80 ([13]; 72 h): >1000 µM; MIC/IC80 ([13]; 120 h): >1000 µM"
R-3-methyl-1-[1-(pentoxycarbonyl)-1-phenylmethoxycarbonylmethyl]imidazolium octyl sulphate [KG303],1000,1000,1000,>1000,500,1000,>1000,>1000,>1000,>1000,>1000,>1000,>1000,>1000,>1000,>1000,500,>1000,1000,>1000,"toxicity / inhibition of the growth of fungi and bacteria (fungi and bacteria): inhibit the growth of fungi and bacteria; MIC/IC80 ([10]; 24 h): >1000 µM; MIC/IC80 ([10]; 48 h): >1000 µM; MIC/IC80 (Candida krusei ATCC 6258; CK1, 24 h): 1000 µM; MIC/IC80 (Candida krusei ATCC 6258; CK1, 48 h): >1000 µM; MIC/IC80 (Candida krusei E28; CK2, 24 h): 1000 µM; MIC/IC80 (Candida krusei E28; CK2, 48 h): >1000 µM; MIC/IC80 (Candida tropicalis 156; 24 h): >1000 µM; MIC/IC80 (Candida tropicalis 156; 48 h): >1000 µM; MIC/IC80 (Candida glabrata 20/l; 24 h): >1000 µM; MIC/IC80 (Candida glabrata 20/l; 48 h): >1000 µM; MIC/IC80 ([11]; 24 h): >1000 µM; MIC/IC80 ([11]; 48 h): >1000 µM; MIC/IC80 ([12]; 24 h): 1000 µM; MIC/IC80 ([12]; 48 h): 1000 µM; MIC/IC80 (Absidia corymbifera 272; 24 h): 1000 µM; MIC/IC80 (Absidia corymbifera 272; 48 h): 1000 µM; MIC/IC80 ([13]; 72 h): 250 µM; MIC/IC80 ([13]; 120 h): 500 µM"
